Measurements as given in PMC6269910 (Molecules, 2013).

Legend:
[1] = system: acetic acid-induced abdominal constriction; experiment: Acetic acid-induced writhing (Koster) test; type: in vivo, mice; details: 200 mg/kg oral
Method: Test samples, suspended in a mixture of distilled water and 0.5% sodium carboxymethyl cellulose (CMC), were given orally to the animals. The control group animals received the same experimental handling as those of the test groups, except that the drug treatment was replaced with appropriate volumes of the dosing vehicle. […] One hour after oral administration of test sample, each mouse was injected intraperitoneally with 3% (w/v) acetic acid solution (0.1 mL/10 g, bw). Starting 5 min after the acetic acid injection, the number of muscular contractions on mice were counted for a period of 10 min. A significant reduction in the number of writhings by any treatment as compared to the number of writhings in control animals was considered a positive analgesic response. The analgesic activity was expressed as a percentage change from writhing controls. ASA was used as a reference compound and administered at 200 mg/kg.

stomach = experiment: Gastric-ulcerogenic effect (ulcer score); type: in vivo, mice; details: ASA 200 mg/kg
[2] = system: lipid peroxidation in stomach; experiment: Lipid peroxidation in stomach (TBARS); type: in vivo, mice; details: ASA 200 mg/kg
[3] = molecular target: T1, HCV NS5B RNA dependent RNA polymerase (Hepatitis C virus genotype 1b, UniProt P26663); experiment: NS5B inhibition assay (primer dependent elongation, poly rA-U12); type: biochemical; details: for inhibition at 100 µM: read-out: Anti-NS5B Activity (% Inh., 100 µM)
T1 construct: HCV NS5B RNA dependent RNA polymerase activity
T1 sequence (P26663 2420-3010): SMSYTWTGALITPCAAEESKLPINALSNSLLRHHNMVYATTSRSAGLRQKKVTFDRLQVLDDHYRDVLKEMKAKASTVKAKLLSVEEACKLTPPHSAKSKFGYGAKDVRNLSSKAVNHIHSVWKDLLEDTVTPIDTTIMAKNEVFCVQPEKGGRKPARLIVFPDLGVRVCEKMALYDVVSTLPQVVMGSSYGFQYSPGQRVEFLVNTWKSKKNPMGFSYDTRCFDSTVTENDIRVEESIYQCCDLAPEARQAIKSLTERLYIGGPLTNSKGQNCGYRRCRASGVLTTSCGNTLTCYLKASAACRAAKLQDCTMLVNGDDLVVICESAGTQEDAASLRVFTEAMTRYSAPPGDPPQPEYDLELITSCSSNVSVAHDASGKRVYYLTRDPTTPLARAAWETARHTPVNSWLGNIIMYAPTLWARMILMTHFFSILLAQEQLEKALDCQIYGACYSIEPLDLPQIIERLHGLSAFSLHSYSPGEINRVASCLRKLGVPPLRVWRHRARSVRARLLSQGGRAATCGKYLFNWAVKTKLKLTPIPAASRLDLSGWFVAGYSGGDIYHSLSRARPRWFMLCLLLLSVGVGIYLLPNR
Method: The compounds 1a–e and 2a–e were reconstituted in DMSO as 50 mM stocks, and serially diluted in DMSO to obtain working stocks. Wedelolactone, a known inhibitor of HCV NS5B activity, was employed as a reference compound. Preliminary screening was carried out at 100 μM to identify a wider range of compounds.
All synthesized compounds were evaluated for their effect on HCV NS5B RNA dependent RNA polymerase activity in primer dependent elongation assays as previously described. Activity of NS5B in the absence of the inhibitor but containing an equivalent amount of DMSO (control reaction) was set at 100% and that in the presence of the inhibitor was quantified relative to this control.

Structure (SMILES)	Writhing test (% inh.) [1] [%]	Writhing test (Mean ± SEM) [1]	Ulcer score (stomach)	Lipid peroxidation [2] [nmol TBARS/g wet weight]	inhibition at 100 µM [3] [%]	melting point [°C]	IC50 ([3]; dose-response, 8–12 concentrations) [µM]
CC(=O)Oc1ccccc1C(=O)O [ASA, acetylsalicylic acid, reference compound]	74.7	4.4 ± 0.9	3/5	436.1 ± 17.1	–	–	–
Cc1ccc(-c2cc(C(F)(F)F)nn2-c2ccc(S(=O)(=O)NC(=S)Nc3ccccc3)cc2)cc1 [Compound 1b, N-(Phenylcarbamothioyl)-4-[5-(4-methylphenyl)-3-(trifluoromethyl)-1H-pyrazol-1-yl] benzene-sulfonamide]	–	–	–	–	53.5	251 to 252	–
Cc1ccc(-c2cc(C(F)(F)F)nn2-c2ccc(S(=O)(=O)NC(=S)NCc3ccccc3)cc2)cc1 [Compound 1c, N-(Benzylcarbamothioyl)-4-[5-(4-methylphenyl)-3-(trifluoromethyl)-1H-pyrazol-1-yl] benzene-sulfonamide]	–	–	–	–	82.3	237 to 240	36.2 ± 1.2
CCN1C(=O)CS/C1=N\S(=O)(=O)c1ccc(-n2nc(C(F)(F)F)cc2-c2ccc(C)cc2)cc1 [Compound 2a, N-(3-Ethyl-4-oxo-1,3-thiazolidin-2-yldene)-4-[5-(4-methylphenyl)-3-(trifluoromethyl)-1H-pyrazol-1-yl]benzenesulfonamide]	–	–	–	–	8.2	282	–
Cc1ccc(-c2cc(C(F)(F)F)nn2-c2ccc(S(=O)(=O)/N=C3\SCC(=O)N3c3ccc(C(F)(F)F)cc3)cc2)cc1 [Compound 2e, N-[3-(4-Trifluoromethylphenyl)-4-oxo-1,3-thiazolidin-2-yldene)-4-[5-(4-methylphenyl)-3-(trifluoro-methyl)-1H-pyrazol-1-yl]benzenesulfonamide]	–	–	–	–	9.4	234 to 235	–
